# In patent US20070149525A1, “Methods of treating amyloidosis using aryl-cyclopropyl derivative aspartyl protease inhibitors” (priority 2005, published 2007):
# Values joined by “and” are separate entries in the source; they are usually repeats but may differ in a detail not shown here. Identical values can stand only once.
# How the values were obtained:
# [1] = Brain to plasma ratio in female FVB mice; format: in vivo; settings: 100 mpk dose
# [2] = tested on: beta-secretase (BACE) versus cathepsin D (catD); assay: CatD/BACE selectivity (ratio of IC50 values); format: biochemical; settings: each value average of four experimental runs; multiple values = more than one experiment
# Experimental: Investigation of potential beta-secretase inhibitors produced compounds with increased selectivity for beta-secretase over other aspartyl proteases such as cathepsin D (catD), cathepsin E (catE), Human Immunodeficiency Viral (HIV) protease, and renin. Selectivity was calculated as a ratio of inhibition (IC50) values in which the inhibition of beta-secretase was compared to the inhibition of other aspartyl proteases.
# The compounds of formula (I) can be selective for beta-secretase versus catD.
# In the following examples, each value is an average of four experimental runs and multiple values for one compound indicate that more than one experiment was conducted.
# [3] = tested on: Madin-Darby Canine Kidney (MDCK) cells; assay: In vitro permeability across MDCK cell monolayer; format: in vitro ADME; settings: test compound 5 μM, 2 h at 37° C., apical to basolateral
# Experimental: (§1) Compounds were evaluated for permeability across a monolayer of Madin-Darby Canine Kidney (MDCK) cells in a transwell device following culturing for 4 days. […] A 0.5 mL of cell suspension (400,000 cells/mL) was placed on membrane and a 1.5 mL media in the bottom wells on day 1. On day 2 and day 3, cells were fed with new media. […] Media was removed from upper chambers and filled with mHBSS with or without CspA, and incubated 30 min at 37° C. with light shaking. Donor chambers were emptied, and filled with test compound at 5 μM in mHBSS. […] Plates were incubated for 2 h at 37° C. with shaking. After 2 h, both the donor and receiver wells were sampled. The bottom chambers were read in a fluorometer to assess LY leakage, and then the media from all wells were assayed by LC/MS/MS to determine compound levels.
# [4] = In vitro permeability across MDCK cell monolayer; format: in vitro ADME, Canine; settings: dog, MDCK, test compound 5 μM, 2 h at 37° C., apical to basolateral, read-out: Permeability Forward A > B
# Experimental: as §1
# P-gp = settings: mdr1 a/b (-/-) and FVB wild-type, mouse, not told, iv, 2.5 mg/kg, 5 min
# Experimental: Use of mdr1 (−/−) mouse and its FVB wild-type littermates, which expresses P-gp at their blood-brain barrier (BBB), can distinguish between a test compound of high P-gp liability from one with a more desirable low P-gp liability.
# Test compounds are administered to both the mdr1 a/b (−/−) and the FVB wild-type mice (N=4/strain) intravenously at 2.5 mg/Kg through the tail vein. Plasma and brains are harvested at 5 min post administration. Test compound is extracted from tissue in parallel with calibration curves prepared from age-matched control tissues, then quantitated by LC/MS/MS. The ratio of brain concentration (Cb) to plasma concentration (Cp) is used as a measure of brain penetration according to the following formula: Brain Penetration (P)=Cb/Cp Therefore, a measure of brain penetration in the mdr1 (−/−) mouse relative to that of the wild-type animal represents an assessment of in vivo P-gp efflux, which is analogous to that determine in vitro with MDR1-MDCK cells. Calculations are made according to the following formula: Pmdr1/PFVB=In vivo Efflux
Structure (SMILES),Selectivity IC50 catD/IC50 BACE [2],Permeability Forward A > B [3],other results
CC(=O)NC(Cc1cc(F)cc(F)c1)C(O)CNC1(c2cccc(C(C)(C)C(F)F)c2)CC1 (centres unmarked) [23.57],,,"Brain AUC (0-6 h) [1]: 57 µM·h; Kp ([1]; mouse, brain and plasma, 100 mg/kg, AUC (0-6 h)): 0.7; AUC(0-t) ([1]; mouse, plasma, 100 mg/kg, read-out: Plasma AUC (0-6 h)): 86 µM·h"
"CC(=O)NC(Cc1cc(F)cc(F)c1)C(O)CNC1(c2cccc(C3CC4CCC3C4)c2)CC1 (centres unmarked) [Example 23.1, N-(4-(1-(3-(bicyclo[2.2.1]heptan-2-yl)phenyl)cyclopropylamino)-1-(3,5-difluorophenyl)-3-hydroxybutan-2-yl)acetamide]",3.4,,
"CC(=O)NC(Cc1cc(F)cc(F)c1)C(O)CNC1(c2cccc(C3CCCC3)c2)CC1 (centres unmarked) [Example 23.2, N-(4-(1-(3-cyclopentylphenyl)cyclopropylamino)-1-(3,5-difluorophenyl)-3-hydroxybutan-2-yl)acetamide]",13.0,,
"CC(=O)NC(Cc1cc(F)cc(F)c1)C(O)CNC1(c2cc(O)cc(CC(C)(C)C)c2)CC1 (centres unmarked) [Example 23.3, N-(1-(3,5-difluorophenyl)-3-hydroxy-4-(1-(3-hydroxy-5-neopentylphenyl)cyclopropylamino)butan-2-yl)acetamide]",1.5,,
"CC(=O)NC(Cc1cc(F)cc(F)c1)C(O)CNC1(c2ccn(CC(C)(C)C)n2)CC1 (centres unmarked) [Example 23.4, N-(1-(3,5-difluorophenyl)-3-hydroxy-4-(1-(1-neopentyl-1H-pyrazol-3-yl)cyclopropylamino)butan-2-yl)acetamide]",3.5,,
"CC(=O)NC(Cc1cc(F)cc(F)c1)C(O)CNC1(c2cnn(C(C)(C)C)c2)CC1 (centres unmarked) [Example 23.5, N-(4-(1-(1-tert-butyl-1H-pyrazol-4-yl)cyclopropylamino)-1-(3,5-difluorophenyl)-3-hydroxybutan-2-yl)acetamide]",6.0,,
"O=C(Cc1nnn[nH]1)NC(Cc1cc(F)cc(F)c1)C(O)CNC1(c2cccc(-n3cccn3)c2)CC1 (centres unmarked) [Example 23.8, N-(4-(1-(3-(1H-pyrazol-1-yl)phenyl)cyclopropylamino)-1-(3,5-difluorophenyl)-3-hydroxybutan-2-yl)-2-(1H-tetrazol-5-yl)acetamide]",3.3,,
"O=C(O)CCCC(=O)NC(Cc1cc(F)cc(F)c1)C(O)CNC1(c2cccc(-n3cccn3)c2)CC1 (centres unmarked) [Example 23.9, 4-(4-(1-(3-(1H-pyrazol-1-yl)phenyl)cyclopropylamino)-1-(3,5-difluorophenyl)-3-hydroxybutan-2-ylcarbamoyl)butanoic acid]",2.6,,
"CC(=O)NC(Cc1cc(F)cc(F)c1)C(O)CNC1(c2cccc(-n3cccn3)c2)CC1C(C)C (centres unmarked) [Example 23.54, N-(4-(1-(3-(1H-pyrazol-1-yl)phenyl)-2-isopropylcyclopropylamino)-1-(3,5-difluorophenyl)-3-hydroxybutan-2-yl)acetamide]",,14.8 ×10⁻⁶ cm/s,"Papp A→B at 2 h, 5 μM [4]: 11.4 ×10⁻⁶ cm/s"
"CCC1CC1(NCC(O)C(Cc1cc(F)cc(F)c1)NC(C)=O)c1cccc(-n2cccn2)c1 (centres unmarked) [Example 23.55, N-(4-(1-(3-(1H-pyrazol-1-yl)phenyl)-2-ethylcyclopropylamino)-1-(3,5-difluorophenyl)-3-hydroxybutan-2-yl)acetamide]",,14.1 ×10⁻⁶ cm/s and 9.2 ×10⁻⁶ cm/s,"Papp A→B at 2 h, 5 μM [4]: 18.4 ×10⁻⁶ cm/s"
CNCC[C@@H](Oc1ccccc1C)c1ccccc1 [atomoxetine],,,in vivo P-gp efflux (Pmdr1/PFVB) (P-gp): 1.17

# More lines, main results first:
Selectivity IC50 catD/IC50 BACE [2],Permeability Forward A > B [3],Structure (SMILES),other results
1.6 and 0.9,,"CC(=O)NC(Cc1cc(F)cc(F)c1)C(O)CNC1(c2csc(C(C)(C)C)c2)CC1 (centres unmarked) [Example 23.6, N-(4-(1-(5-tert-butylthiophen-3-yl)cyclopropylamino)-1-(3,5-difluorophenyl)-3-hydroxybutan-2-yl)acetamide]",
1.7,,"CC(=O)NC(Cc1cc(F)cc(F)c1)C(O)CNC1(c2cccc(C(C)C(F)(F)F)c2)CC1 (centres unmarked) [Example 23.7, N-(1-(3,5-difluorophenyl)-3-hydroxy-4-(1-(3-(1,1,1-trifluoropropan-2-yl)phenyl)cyclopropylamino)butan-2-yl)acetamide]",
,12.21 ×10⁻⁶ cm/s and 18.32 ×10⁻⁶ cm/s,"CC(=O)NC(Cc1cc(F)cc(F)c1)C(O)CNC1(c2cccc(-n3cccn3)c2)CC1 (centres unmarked) [Example 23.11, N-(4-(1-(3-(1H-pyrazol-1-yl)phenyl)cyclopropylamino)-1-(3,5-difluorophenyl)-3-hydroxybutan-2-yl)acetamide]",
,16.29 ×10⁻⁶ cm/s,"CC(=O)NC(Cc1cc(F)cc(F)c1)C(O)CNC1(c2cccc(-n3cccn3)c2)CC1 (centres unmarked) [Example 23.12, N-(4-(1-(3-(1H-pyrazol-1-yl)phenyl)cyclopropylamino)-1-(3,5-difluorophenyl)-3-hydroxybutan-2-yl)acetamide]",
,8.78 ×10⁻⁶ cm/s,"CC(=O)NC(Cc1cc(F)cc(F)c1)C(O)CNC1(c2cccc(-n3cccn3)c2)CC1 (centres unmarked) [Example 23.18, N-(4-(1-(3-(1H-pyrazol-1-yl)phenyl)cyclopropylamino)-1-(3,5-difluorophenyl)-3-hydroxybutan-2-yl)acetamide]",
,16.35 ×10⁻⁶ cm/s,"CC(=O)NC(Cc1cc(F)cc(F)c1)C(O)CNC1(c2cccc(-n3cccn3)c2)CC1 (centres unmarked) [Example 23.27, N-(4-(1-(3-(1H-pyrazol-1-yl)phenyl)cyclopropylamino)-1-(3,5-difluorophenyl)-3-hydroxybutan-2-yl)acetamide]",
,19.62 ×10⁻⁶ cm/s,"CC(=O)NC(Cc1cc(F)cc(F)c1)C(O)CNC1(c2cccc(C(C)C(F)(F)F)c2)CC1 (centres unmarked) [Example 23.28, N-(1-(3,5-difluorophenyl)-3-hydroxy-4-(1-(3-(1,1,1-trifluoropropan-2-yl)phenyl)cyclopropylamino)butan-2-yl)acetamide]","Papp A→B at 2 h, 5 μM [4]: 12.6 ×10⁻⁶ cm/s"
